Assay results from patent US20040048900A1, “Nicotine and/or nicotine agonists for the treatment of general anesthetic effects and side effects” (priority 2002, published 2004).

Legend:
mice = system: mice
Description: Nicotinic acetylcholine receptors are involved in the mechanism of isoflurane hyperalgesia, and nicotinic inhibition could be the initiating event.
(§1) How could nicotinic inhibition cause hyperalgesia? Nicotine is thought to exert its analgesic action by increasing the release of norepinephrine, serotonin and acetylcholine onto the relay neurons in the dorsal horn of the spinal cord (Rao, 1996; and Reuter, 2000). Isoflurane might reduce pain threshold by inhibiting nicotinic acetylcholine receptors tonically active in potentiating the release of norepinephrine, serotonin and/or acetylcholine. To test the role of the α-adrenergic system, mice were treated systemically with the adrenergic neurotoxin DSP-4 to deplete norepinephrine levels (Jonsson, 1981). The DSP-4 mice 14 days after treatment were tested for HPWL in the presence of isoflurane alone or isoflurane with nicotine pretreatment (see methods).
To test the role of muscarinic receptors for acetylcholine, mice were treated with the nonspecific muscarinic antagonist, atropine. A cholinergic neurotoxin could not be used for these studies, because removing all cholinergic neurons would have nicotinic in addition to muscarinic effects. Instead, postsynaptic muscarinic blockade was used. ACh causes analgesia, at least in part due to muscarinic stimulation (Chiari, 1999; Smith, 1989; and Lavand'homme, 1999). […] High concentrations of atropine can block nicotinic acetylcholine receptors as well (Zwart, 1997).

[1] = system: norepinephrine levels in brain and spinal cord; test: HPLC of norepinephrine, 5-HT, dopamine and metabolites after DSP-4; type: in vivo, mice; conditions: DSP4-treated n = 2
Description: as §1
The HPLC procedures were conducted according to the methods described by Underwood et al. (Underwood, 1999).

`CN1[C@@H]2CC[C@H]1C[C@@H](OC(=O)C(CO)c1ccccc1)C2` (stereo partly drawn) [atropine] was tested, and the “effect on hyperalgesic response to isoflurane” value (mice; atropine 5 mg/kg) was “had no effect on the hyperalgesic response to isoflurane” and the “minimum concentration that caused baseline hyperalgesia” value (mice; mouse, in vivo) was 5 mg/kg.

With `CCN(CCCl)Cc1ccccc1Br` [DSP4] the “MHPG concentration (HPLC)” value ([1]; Brain Stem, control 253.3) was 104.9, the “HVA concentration (HPLC)” value ([1]; Brain Stem, control 300.1) was 275.2 and the “DA concentration (HPLC)” value ([1]; Brain Stem, control 599.2) was 621.0. The “DOPAC concentration (HPLC)” value ([1]; Brain Stem, control 662.4) was 494.6, the “NE concentration (HPLC)” value ([1]; Brain Stem, control 1044.1) was 811.2 and the “5-HT concentration (HPLC)” value ([1]; Brain Stem, control 2336.9) was 2140.3. For the same molecule, the “5HIAA concentration (HPLC)” value ([1]; Brain Stem, control 2972.1) was 2746.9, the “HVA concentration (HPLC)” value ([1]; Medulla, control 118.5) was 88.0 and the “DA concentration (HPLC)” value ([1]; Medulla, control 168.7) was 138.2. The “MHPG concentration (HPLC)” value ([1]; Medulla, control 194.5) was 139.3, the “DOPAC concentration (HPLC)” value ([1]; Medulla, control 248.3) was 196.0 and the “5-HT concentration (HPLC)” value ([1]; Medulla, control 1152.5) was 1054.9. The “5HIAA concentration (HPLC)” value ([1]; Medulla, control 1184.1) was 1302.6, the “NE concentration (HPLC)” value ([1]; Medulla, control 1408.8) was 812.0 and the “HVA concentration (HPLC)” value ([1]; Pons, control 100.7) was 181.6. For the same molecule, the “DA concentration (HPLC)” value ([1]; Pons, control 128.1) was 379.6, the “MHPG concentration (HPLC)” value ([1]; Pons, control 235.9) was 122.1 and the “DOPAC concentration (HPLC)” value ([1]; Pons, control 341.8) was 345.3. The “5-HT concentration (HPLC)” value ([1]; Pons, control 996.8) was 1597.6, the “5HIAA concentration (HPLC)” value ([1]; Pons, control 1334.6) was 2024.7 and the “NE concentration (HPLC)” value ([1]; Pons, control 1345.9) was 811.6. The “HVA concentration (HPLC)” value ([1]; Spinal cord, control 38.2) was 23.0, the “MHPG concentration (HPLC)” value ([1]; Spinal cord, control 82.5) was 62.6 and the “DOPAC concentration (HPLC)” value ([1]; Spinal cord, control 136.4) was 118.8. For the same molecule, the “DA concentration (HPLC)” value ([1]; Spinal cord, control 182.6) was 210.9, the “NE concentration (HPLC)” value ([1]; Spinal cord, control 798.8) was 587.6 and the “5HIAA concentration (HPLC)” value ([1]; Spinal cord, control 1057.9) was 1111.3. For the same molecule, the “5-HT concentration (HPLC)” value ([1]; Spinal cord, control 1122.1) was 808.6.
